Test results reported in paper PMC6013488, “A widely-applicable high-throughput cellular thermal shift assay (CETSA) using split Nano Luciferase” (Scientific Reports, 2018).
Counter-ions that a name gives are not always drawn. Like-named read-outs stand apart in the source and are kept apart here.

Key:
CDK9-86b = target: T1, CDK9-86b (Homo sapiens, UniProt P50750); assay: SplitLuc CETSA of CDK9-86b; format: cell-based; settings: 45 °C for 3.5 min, 96-well PCR plate
T1 construct: Size (a.a., untagged); expressed in transfected cells; host or cells: HEK293T
Method: For CDK9, 2 µg of DNA per well was used. After 24 h (48 h for CDK9), cells were harvested by trypsinization and resuspended at 1 × 10^6 cells/mL (unless otherwise indicated) in CETSA buffer containing DPBS (with CaCl2 and MgCl2) plus 1 g/L glucose, 1X Halt protease inhibitor cocktail (ThermoFisher), and 0.5% DMSO (DMSO was not added for experiments that received subsequent compound and vehicle treatment). For temperature range experiments (without compound or single dose), samples were aliquoted to PCR strips at 30 µL per tube. […] Samples were then heated for 3.5 min using a pre-heated thermal cycler, allowed to equilibrate to room temperature, and 6 µL of 6% NP40 was added to each well. […] 11S (GenScript) and furimazine substrate (from Nano-Glo Luciferase Assay System, Promega) were added, at final concentrations of 100 nM and 0.5X, respectively, and samples were analyzed for luminescence intensity using a ViewLux High-throughput CCD imager (Perkin Elmer) equipped with clear filters.
Cells were transfected and harvested as above (384-well protocol). Cells were dispensed (5 µL cell/well) into 1,536-well white plates (Aurora, cyclic olefin polymer, cat# EWB041000A) using a Multidrop Combi. […] One µL of 6% NP40 was added per well and plates were incubated for 30 min to allow cell lysis followed by addition of 3 µL 11S (final concentration 100 nM) and furimazine substrate. Plates were centrifuged and analyzed for luminescence intensity using a ViewLux reader. For the LDHA and CDK9 screens, a final concentration of 0.5X and 0.25X furimazine was used, respectively. Normalization controls include DMSO and GSK2837808A-treated samples or unheated samples for LDHA and CDK9, respectively. […] Subsequently, 500 pM (final) of 86b was added to the wells, followed by addition of 100 nM 11S and 0.25X furimazine substrate (final).

CDK9/cyclin K = target: T2, CDK9/cyclin K (Homo sapiens, UniProt P50750); assay: TR-FRET Lanthascreen Eu Kinase Binding assay; settings: for Curve Class: classifies curves by quality of fit, efficacy and number of asymptotes; for Efficacy: difference between highest and lowest activity across concentration range; for Efficacy / Max Resp: in %
T2 construct: purchased Invitrogen (ThermoFisher) PV4335
Text: The TR-FRET Lanthascreen Eu Kinase Binding assay for CDK9/cyclin K was purchased from ThermoFisher and performed as per manufacturer instructions.

[1] = logarithm of AC50, read-out: Log AC50 (converted)

T1 sequence (P50750 whole entry): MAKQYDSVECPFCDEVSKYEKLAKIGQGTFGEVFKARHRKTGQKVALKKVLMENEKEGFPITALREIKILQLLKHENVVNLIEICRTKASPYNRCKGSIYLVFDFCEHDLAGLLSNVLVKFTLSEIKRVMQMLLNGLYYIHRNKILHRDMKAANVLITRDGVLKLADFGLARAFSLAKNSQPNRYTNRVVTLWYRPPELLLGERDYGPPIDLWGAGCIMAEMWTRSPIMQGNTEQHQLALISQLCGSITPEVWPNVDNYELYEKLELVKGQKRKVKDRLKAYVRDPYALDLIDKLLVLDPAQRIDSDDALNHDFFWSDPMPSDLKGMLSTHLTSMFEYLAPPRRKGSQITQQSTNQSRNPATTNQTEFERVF
T2 sequence (P50750 whole entry): as above
T2 sequence (O75909 whole entry partner): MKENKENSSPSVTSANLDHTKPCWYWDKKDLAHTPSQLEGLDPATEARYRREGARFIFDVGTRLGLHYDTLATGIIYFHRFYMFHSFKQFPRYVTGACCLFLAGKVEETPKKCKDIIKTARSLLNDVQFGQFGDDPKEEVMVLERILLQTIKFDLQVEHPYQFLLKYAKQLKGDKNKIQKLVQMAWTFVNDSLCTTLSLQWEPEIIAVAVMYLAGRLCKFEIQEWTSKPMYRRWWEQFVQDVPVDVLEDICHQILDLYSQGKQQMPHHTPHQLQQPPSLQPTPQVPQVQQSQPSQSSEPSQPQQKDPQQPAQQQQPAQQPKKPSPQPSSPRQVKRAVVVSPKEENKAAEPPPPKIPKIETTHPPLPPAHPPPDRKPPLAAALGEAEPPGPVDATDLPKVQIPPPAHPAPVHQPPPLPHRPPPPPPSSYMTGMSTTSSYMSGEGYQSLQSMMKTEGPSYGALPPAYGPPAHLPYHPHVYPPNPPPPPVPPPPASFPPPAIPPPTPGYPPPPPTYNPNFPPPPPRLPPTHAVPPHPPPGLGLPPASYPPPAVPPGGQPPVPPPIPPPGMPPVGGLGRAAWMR

| stabilization of CDK9-86b in follow-up experiments (CDK9-86b) | AC50 (CDK9/cyclin K; [1]) | Structure (SMILES) | Curve Class (CDK9/cyclin K) | Efficacy (CDK9/cyclin K) | Max Resp (CDK9/cyclin K) | AC50 (CDK9/cyclin K; concentration at which half maximal activity is observed, 7-point qHTS, read-out: AC50) | Log AC50 (M) (CDK9/cyclin K; logarithm of AC50) | AC50 (CDK9/cyclin K; AC50, concentration at which half maximal activity is observed, 7-point qHTS) |
| --- | --- | --- | --- | --- | --- | --- | --- | --- |
| stabilize | – | COc1cc(F)ccc1-c1ncnc(Nc2cccc(C[S+](C)(=N)[O-])c2)n1 (stereo not drawn) [BAY-1143572] | -1.2 | -55.3 | -100.3 | – | – | – |
| – | – | CC1(COc2ccc3c(c2)ncn3-c2ccc3cccc(N4CCC(N)CC4)c3n2)COC1 [CP-868596 (Crenolanib)] | -1.1 | -91.6 | -90.2 | – | – | – |
| stabilize | – | COc1ccc(F)cc1-c1cc(NC(=O)[C@@H]2CCCNC2)ncc1Cl [CDK-IN-2] | 5 | 0.0 | -98.0 | – | – | – |
| – | – | Oc1ccc(-c2ccc(-c3cc(Nc4cccc(CNC5CC5)c4)[nH]n3)cc2)c(O)c1 [TCS-2312] | -1.1 | -85.0 | -94.1 | – | – | – |
| stabilize | – | CN1C/C=C/CCOc2cccc(c2)-c2ccnc(n2)Nc2cccc(c2)C1 [SB1317] | 5 | -6.2 | -95.8 | – | – | – |
| – | – | NS(=O)(=O)c1ccc(NN=C2C(=O)Nc3ccc(Br)cc32)cc1 [Cdk2 Inhibitor II] | -1.2 | -67.2 | -64.7 | – | – | – |
| – | – | CN1CC[C@@H](c2c(O)cc(O)c3c(=O)cc(-c4ccc(C(F)(F)F)cc4Cl)oc23)[C@@H]1CO [Voruciclib] | -1.1 | -95.6 | -95.8 | – | – | – |
| – | – | CC(C)Oc1cc(Nc2nc(N[C@@H](C)c3ccc(F)cn3)ncc2Cl)n[nH]1 [AZ 23] | -1.2 | -76.1 | -97.4 | – | – | – |
| – | – | CN(C)c1nc2c(Br)c(Br)c(Br)c(Br)c2[nH]1 [DMAT] | -1.1 | -84.2 | -94.6 | – | – | – |
| – | – | Cc1n[nH]c2ccc(-c3cncc(OC[C@@H](N)Cc4ccccc4)c3)cc12 [Compound A-674563, A-674563] | -1.1 | -89.8 | -98.7 | – | – | – |
| – | – | CNC(=O)c1ccc(Nc2ncc(C(F)(F)F)c(NCc3nccnc3N(C)[S+](C)(=O)[O-])n2)cc1 [Defactinib (VS-6063, PF-04554878)] | -1.1 | -79.8 | -50.3 | – | – | – |
| – | – | O=C(NCc1cccc(O)c1)Nc1nc(-c2ccncc2)cs1 [RKI-1447] | -1.2 | -64.8 | -59.5 | – | – | – |
| – | 0.631 µM | COc1ccc(-c2oc3ncnc(N)c3c2-c2ccc(NC(=O)Nc3cc(C(F)(F)F)ccc3F)cc2)cc1 [GW768505A] | -1.1 | -85.9 | -78.2 | – | – | – |
| – | – | COc1ccccc1-c1c[nH]c2ncc(-c3cncc(C(=O)N(C)C)c3)cc12 [PPY A] | -1.1 | -90.1 | -95.0 | – | – | – |
| – | – | CN1CCC(c2c(O)cc(O)c3c(=O)cc(-c4ccccc4Cl)oc23)C1CO (stereo not drawn) [Compound P276-00, P276-00] | -1.2 | -60.7 | -99.0 | – | – | – |
| – | – | CC(C)c1cnn2c(NCc3ccccc3)cc(N[C@@H](CO)[C@H](O)CO)nc12 [BS194] | -1.1 | -108.2 | -95.8 | – | – | – |
| – | – | CC(C)n1nc(-c2ccc(NC(=O)Nc3cccc(C(F)(F)F)c3)cc2)c2c(N)ncnc21 [AD57 (hydrochloride)] | -1.1 | -86.8 | -79.5 | – | – | – |
| – | 0.631 µM | N[C@H]1CC[C@H](Nc2nc(Nc3ccc(C(=O)N4CCCCC4)cc3)c3ncn(-c4cccc(F)c4)c3n2)CC1 [Purfalcamine] | -1.2 | -78.7 | -96.3 | – | – | – |

| stabilization of CDK9-86b in follow-up experiments (CDK9-86b) | AC50 (CDK9/cyclin K; [1]) | Structure (SMILES) | Curve Class (CDK9/cyclin K) | Efficacy (CDK9/cyclin K) | Max Resp (CDK9/cyclin K) | AC50 (CDK9/cyclin K; concentration at which half maximal activity is observed, 7-point qHTS, read-out: AC50) | Log AC50 (M) (CDK9/cyclin K; logarithm of AC50) | AC50 (CDK9/cyclin K; AC50, concentration at which half maximal activity is observed, 7-point qHTS) |
| --- | --- | --- | --- | --- | --- | --- | --- | --- |
| – | – | NC(=O)c1ccccc1Nc1ccnc(Nc2cccc(O)c2)n1 [DB07268] | -1.1 | -100.7 | -97.2 | – | – | – |
| – | 0.631 µM | O=C1NC(=O)C(c2cnc3ccccn23)=C1c1cn2c3c(cc(F)cc13)CN(C(=O)N1CCCCC1)CC2 [LY2090314] | -1.1 | -79.5 | -83.9 | – | – | – |
| – | – | Oc1cc(CNC(=S)/C=C/c2cc(O)c(O)c(Br)c2)cc(O)c1O [NT 157] | -1.4 | -60.3 | -8.3 | – | – | – |
| – | – | CC(C)[C@H](CO)Nc1nc(Nc2cccc(Cl)c2)c2ncn(C(C)C)c2n1 [Purvalanol A] | -1.1 | -79.6 | -72.7 | – | – | – |
| – | – | O=C1Nc2ccc3ncsc3c2/C1=C/c1c[nH]cn1 [Compound C16, C16] | -1.2 | -77.3 | -68.5 | – | – | – |
| – | – | N#C/C(=C\c1ccc(O)c(O)c1)C(=O)NCCCNC(=O)/C(C#N)=C/c1ccc(O)c(O)c1 [Tyrphostin AG 537] | -1.1 | -98.0 | -83.8 | – | – | – |
| – | – | Cc1n[nH]c2ccc(-c3cncc(OC[C@@H](N)Cc4c[nH]c5ccccc45)c3)cc12 [Compound A-443654, A-443654] | -1.1 | -88.0 | -96.6 | – | – | – |
| – | – | CC[C@@](C)(Nc1ccnc(-c2c[nH]c3ncccc23)n1)C(=O)NCC(F)(F)F [VX-509 (Decernotinib)] | -1.1 | -91.7 | -97.1 | – | – | – |
| – | – | CC(=O)N1CCN(C(=O)Cc2ccc(Nc3ncc(F)c(Nc4ccc(C(=O)Nc5ccccc5Cl)cc4)n3)cc2)CC1 [Aurora A inhibitor II] | -1.1 | -82.6 | -83.7 | 0.947 µM | -6.0 M | – |
| – | – | CC(C)CC(=O)Nc1[nH]nc2c1CN(C(=O)C1CCN(C)CC1)C2(C)C [PHA-793887] | -1.1 | -87.0 | -99.5 | – | – | – |
| – | – | CCOC(=O)c1c(/C(C#N)=C\N)c2ccc(Cl)c(Cl)c2n1C [KH-CB19] | -1.1 | -88.2 | -90.2 | – | – | 0.336 µM |
| – | – | O=C1OC(/C=C/c2ccccc2)=NC/1=C\c1cccnc1 [TC-DAPK 6] | -1.2 | -71.2 | -68.2 | – | – | – |
| – | – | Nc1n[nH]c(N)c1N=Nc1ccc(O)cc1 (stereo in doubt) [CAY10574] | -1.1 | -84.6 | -95.5 | – | – | – |
| – | – | CN(C)CCCn1cc(C2=C(c3c[nH]c4ccccc34)C(=O)NC2=O)c2ccccc21 [GF109203X] | -1.2 | -69.1 | -74.0 | – | – | – |
| – | – | CN(c1ncccc1CNc1nc(Nc2ccc3c(c2)CC(=O)N3)ncc1C(F)(F)F)[S+](C)(=O)[O-] [PF-562271] | -1.1 | -92.3 | -101.3 | – | – | – |
| – | – | O=C(O)c1ccc2c(c1)nc(Nc1cccc(Cl)c1)c1ccncc12 [CX-4945 (sodium salt)] | -1.1 | -98.0 | -93.5 | – | – | – |
| – | – | CCS(=O)(=O)c1cccc(-c2cc(C(=O)NC3CCN(C)CC3)c(C)c3[nH]c4ncc(C)cc4c23)c1 [TAK-901] | -1.1 | -101.2 | -96.3 | – | – | – |
